Structures can show the parent of a compound that is named as a salt.
Molecular target: T1, NLRP3 inflammasome (Homo sapiens, UniProt Q96P20)
T1 construct: endogenous in cells; host or cells: THP-1 cells, PMA-differentiated and stimulated with LPS and ATP
Test: THP-1 IL-1β production inhibition test
Type: cell-based
Details: PMA-treated THP-1 cells, LPS 50 ng/ml + ATP 5 mM, 2 hours, IL-1β in supernatant by ELISA
Procedure: Test Example 1: THP-1 IL-1β Production Inhibition Test
PMA (phorbol myristate acetate, SIGMA, P1585) was added to THP-1 cells in an amount of 50 ng/mL to culture the cells for 2 days at 37° C. The culture medium was replaced with a serum-free RPMI-1640 medium, and a compound with a known concentration was added thereto to culture the cells at 37° C. for 15 minutes. LPS (Lipopolysaccharide, SIMGA, L2880) and ATP (Adenosine triphosphate, SIGMA, A2383) were added so that final concentrations become 50 ng/ml and 5 mM, respectively, followed by culturing at 37° C. for 2 hours. The supernatants were collected to measure the concentrations of IL-1β by ELISA (DuoSet ELISA human IL-1β, R&D Systems, DY201). The IL-1β concentrations were plotted against log concentrations of test compounds, and an IC50 value was calculated by sigmoid Emax model nonlinear regression analysis.
Example compounds were confirmed to inhibit NLRP3 inflammasome activation and IL-1β production.

T1 sequence (Q96P20 whole entry): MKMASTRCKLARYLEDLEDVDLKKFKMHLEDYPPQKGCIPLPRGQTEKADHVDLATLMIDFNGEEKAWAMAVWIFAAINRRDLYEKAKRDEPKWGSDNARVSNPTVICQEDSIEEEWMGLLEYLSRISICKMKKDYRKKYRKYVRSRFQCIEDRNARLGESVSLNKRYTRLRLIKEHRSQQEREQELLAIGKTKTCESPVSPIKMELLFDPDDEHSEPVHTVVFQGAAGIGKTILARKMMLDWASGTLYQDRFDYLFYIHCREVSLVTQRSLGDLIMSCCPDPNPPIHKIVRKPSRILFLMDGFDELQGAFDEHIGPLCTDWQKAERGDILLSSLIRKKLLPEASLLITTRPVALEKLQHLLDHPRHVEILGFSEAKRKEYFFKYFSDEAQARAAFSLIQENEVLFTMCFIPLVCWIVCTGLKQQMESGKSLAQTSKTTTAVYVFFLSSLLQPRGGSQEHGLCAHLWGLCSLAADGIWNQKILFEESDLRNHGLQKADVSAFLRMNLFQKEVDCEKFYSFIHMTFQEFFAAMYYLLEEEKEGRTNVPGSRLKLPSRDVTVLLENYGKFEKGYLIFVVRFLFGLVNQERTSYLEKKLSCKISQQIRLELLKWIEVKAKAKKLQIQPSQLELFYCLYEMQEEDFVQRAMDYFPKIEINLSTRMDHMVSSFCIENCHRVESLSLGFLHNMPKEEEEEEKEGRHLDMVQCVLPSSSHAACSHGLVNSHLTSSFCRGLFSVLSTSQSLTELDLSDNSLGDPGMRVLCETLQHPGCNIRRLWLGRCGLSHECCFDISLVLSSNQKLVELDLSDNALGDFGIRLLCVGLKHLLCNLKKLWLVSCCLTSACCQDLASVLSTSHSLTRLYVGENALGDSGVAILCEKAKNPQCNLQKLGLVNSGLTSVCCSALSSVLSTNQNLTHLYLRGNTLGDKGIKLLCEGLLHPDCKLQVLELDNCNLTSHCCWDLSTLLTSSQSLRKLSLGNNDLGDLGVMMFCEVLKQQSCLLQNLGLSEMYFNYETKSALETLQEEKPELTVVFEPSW

Structure (SMILES) | IC50
Cc1c(-c2ccc(C(F)(F)F)cc2O)nnc2c1CCCN2[C@@H]1CCCC[C@H]1O [Example 1, 2-{8-[(1R,2R)-2-hydroxycyclohexyl]-4-methyl-5,6,7,8-tetrahydropyrido[2,3-c]pyridazin-3-yl}-5-(trifluoromethyl)phenol] | 16 nM
Cc1c(-c2ccc(C(F)(F)F)cc2O)nnc2c1CCCN2[C@@H]1CCCN(C)C1 [Example 2, 2-{4-methyl-8-[(3R)-1-methylpiperidin-3-yl]-5,6,7,8-tetrahydropyrido[2,3-c]pyridazin-3-yl}-5-(trifluoromethyl)phenol] | 6.3 nM
CCN1CCC[C@@H](N2CCCc3c2nnc(-c2ccc(C(F)(F)F)cc2O)c3C)C1 [Example 3, 2-{8-[(3R)-1-ethylpiperidin-3-yl]-4-methyl-5,6,7,8-tetrahydropyrid[2,3-c]pyridazin-3-yl}-5-(trifluoromethyl)phenol] | 3 nM
Cc1c(-c2ccc(C(F)(F)F)cc2O)nnc2c1COCCN2[C@@H]1CCCC[C@H]1O [Example 4, 2-{9-[(1R,2R)-2-hydroxycyclohexyl]-4-methyl-5,7,8,9-tetrahydropyridazino[3,4-e][1,4]oxaazepin-3-yl}-5-(trifluoromethyl)phenol] | 6.8 nM
Cc1c(-c2ccc(C(F)(F)F)cc2O)nnc2c1CCN2[C@H]1CCNC1=O [Example 5, (3S)-3-{3-[2-hydroxy-4-(trifluoromethyl)phenyl]-4-methyl-5,6-dihydro-7H-pyrrolo[2,3-c]pyridazin-7-yl}pyrrolidin-2-one] | 13 nM
COc1ccc(-c2nnc3c(c2C)COCCN3[C@@H]2CCCN(C)C2)c(O)c1 [Example 6, 5-methoxy-2-{4-methyl-9-[(3R)-1 methylpiperidin-3-yl]-5,7,8,9-tetrahydropyridazino[3,4-e][1,4]oxaazepin-3-yl}phenol] | 14 nM
Cc1c(-c2ccc(C(F)(F)F)cc2O)nnc2c1CN(C)CCN2[C@@H]1CCCC[C@H]1O [Example 7, 2-{9-[(1R,2R)-2-hydroxycyclohexyl]-4,6-dimethyl-6,7,8,9-tetrahydro-5H-pyridazino[3,4-e][1,4]diazepin-3-yl}-5-(trifluoromethyl)phenol] | 16 nM
CC(=O)N1CCC[C@@H](N2CCCc3c2nnc(-c2ccc(C(F)(F)F)cc2O)c3C)C1 [Example 8] | 26 nM
Cc1c(-c2ccc(C(F)(F)F)cc2O)nnc2c1CCCN2[C@@H]1CCCN(C2COC2)C1 [Example 9] | 35 nM
Cc1c(-c2ccc(OC(F)(F)F)cc2O)nnc2c1CCCN2[C@@H]1CCCN(C)C1 [Example 10] | 49 nM
Cc1ccc(-c2nnc3c(c2C)CCCN3[C@@H]2CCCN(C)C2)c(O)c1 [Example 11] | 46 nM
Cc1c(-c2ccc(C(F)(F)F)cc2O)nnc2c1CCCCN2[C@@H]1CCCC[C@H]1O [Example 12] | 44 nM
Cc1c(-c2ccc(C(F)(F)F)cc2O)nnc2c1CCCN2[C@@H]1CCCNC1=O [Example 13] | 30 nM
Cc1c(-c2ccc(C(F)(F)F)cc2O)nnc2c1CCCN2[C@@H]1CCCN(C)C1=O [Example 14] | 22 nM
Cc1c(-c2ccc(C(F)(F)F)cc2O)nnc2c1CCCN2[C@H]1CNC(=O)C1 [Example 15] | 780 nM
Cc1c(-c2ccc(C(F)(F)F)cc2O)nnc2c1CCCN2[C@@H]1CCN(C)C[C@H]1O [Example 16] | 1900 nM
CN[C@@H]1CCCC[C@H]1N1CCCc2c1nnc(-c1ccc(C(F)(F)F)cc1O)c2C [Example 17] | 410 nM
Cc1cc(C(F)(F)F)cc(O)c1-c1cc2c(nn1)N([C@@H]1CCCC[C@H]1O)CCC2 [Example 18] | 15 nM
Cc1c(-c2ccc(Cl)cc2O)nnc2c1COCCN2[C@@H]1CCCC[C@H]1O [Example 19] | 30 nM
Cc1c(-c2ccc(C(F)(F)F)cc2O)nnc2c1CCN2C[C@@H](C)O [Example 20] | 200 nM

Structure (SMILES) | IC50
COC1CCN([C@@H]2CCCC[C@H]2O)c2nnc(-c3ccc(C(F)(F)F)cc3O)c(C)c21 (stereo partly shown) [Example 21] | 16 nM
Cc1c(-c2ccc(C(F)(F)F)cc2O)nnc2c1CCCN2[C@@H]1CC[C@H](C#N)C1 [Example 22] | 120 nM
Cc1c(-c2ccc(C(F)(F)F)cc2O)nnc2c1CN(Cc1ccccc1)CCN2[C@@H]1CCCC[C@H]1O [Example 23] | 250 nM
CC(=O)NCCCCN1CCOCc2c1nnc(-c1ccc(C(F)(F)F)cc1O)c2C [Example 25] | 40 nM
Cc1c(-c2ccc(C(F)(F)F)cc2O)nnc2c1COCCN2[C@@H]1CCCN(CC(F)F)C1 [Example 26] | 14 nM
Cc1c(-c2ccc(C(F)(F)F)cc2O)nnc2c1CCCN2[C@@H]1CCCN(CCO)C1 [Example 27, 2-{8-[(3R)-1-(2-hydroxyethyl)piperidin-3-yl]-4-methyl-5,6,7,8-tetrahydropyrid[2,3-c]pyridazin-3-yl}-5-(trifluoromethyl)phenol dihydrochloride] | 42 nM
Cc1c(-c2ccc(OC(F)F)cc2O)nnc2c1CCCN2[C@@H]1CCCC[C@H]1O [Example 28, 5-(difluoromethoxy)-2-{8-[(1R,2R)-2-hydroxycyclohexyl]-4-methyl-5,6,7,8-tetrahydropyrido[2,3-c]pyridazin-3-yl}phenol] | 8.1 nM
Cc1c(-c2ccc(OC(F)F)cc2O)nnc2c1CCCN2[C@@H]1CCOC[C@H]1O [Example 29, (3S,4R)-4-{3-[4-(difluoromethoxy)-2-hydroxyphenyl]-4-methyl-6,7-dihydropyrido[2,3-c]pyridazin-8(5H)-yl}oxan-3-ol] | 13 nM
Cc1c(-c2ccc(OC(F)F)cc2O)nnc2c1COCCN2[C@@H]1CCCC[C@H]1O [Example 30, 5-(difluoromethoxy)-2-{9-[(1R,2R)-2-hydroxycyclohexyl]-4-methyl-5,7,8,9-tetrahydropyridazino[3,4-e][1,4]oxaazepin-3-yl}phenol] | 9.5 nM
Cc1c(-c2ccc(C(F)(F)F)cc2O)nnc2c1CCCN2[C@@H]1CCCN(C2CC2)C1 [Example 31, 2-{8-[(3R)-1-cyclopropylpiperidin-3-yl]-4-methyl-5,6,7,8-tetrahydropyrido[2,3-c]pyridazin-3-yl}-5-(trifluoromethyl)phenol] | 12 nM
COC(=O)N1CCC[C@@H](N2CCCc3c2nnc(-c2ccc(C(F)(F)F)cc2O)c3C)C1 [Example 32, (3R)-3-{3-[2-hydroxy-4-(trifluoromethyl)phenyl]-4-methyl-6,7-dihydropyrido[2,3-c]pyridazin-8(5H)-yl}piperidine-1-methyl carboxylate] | 96 nM
Cc1c(-c2ccc(C(F)(F)F)cc2O)nnc2c1CCCN2[C@@H]1CCCN(C(N)=O)C1 [Example 33, (3R)-3-{3-[2-hydroxy-4-(trifluoromethyl)phenyl]-4-methyl-6,7-dihydropyrido[2,3-c]pyridazin-8(5H)-yl}piperidin-1-carboxyamide] | 55 nM
Cc1c(-c2ccc(C(F)(F)F)cc2O)nnc2c1CCCN2[C@@H]1CCCN(S(C)(=O)=O)C1 [Example 34, 2-{8-[(3R)-1-(methansulfonyl)piperidin-3-yl]-4-methyl-5,6,7,8-tetrahydropyrido[2,3-c]pyridazin-3-yl}-5-(trifluoromethyl)phenol] | 37 nM
Cc1c(-c2ccc(C(F)(F)F)cc2O)nnc2c1CCN2[C@H]1C[C@@](C)(O)C1 [Example 35, 2-{7-[(1s,3s)-3-hydroxy-3-methylcyclobutyl]-4-methyl-6,7-dihydro-5H-pyrrolo[2,3-c]pyridazin-3-yl}-5-(trifluoromethyl)phenol] | 44 nM
Cc1c(-c2ccc(C(F)(F)F)cc2O)nnc2c1CN(C)CN2[C@@H]1CCCC[C@H]1O [Example 36, 2-{8-[(1R,2R)-2-hydroxycyclohexyl]-4,6-dimethyl-5,6,7,8-tetrahydropyrimido[4,5-c]pyridazin-3-yl}-5-(trifluoromethyl)phenol] | 11 nM
Cc1c(-c2ccc(C(F)(F)F)cc2O)nnc2c1CNC(=O)N2[C@@H]1CCCC[C@H]1O [Example 37, 8-[(1R,2R)-2-hydroxycyclohexyl]-3-[2-hydroxy-4-(trifluoromethyl)phenyl]-4-methyl-5,8-dihydropyrimido[4,5-c]pyridazin-7 (6H)-one] | 230 nM
Cc1c(-c2ccc(C(F)(F)F)cc2O)nnc2c1CNCCN2[C@@H]1CCCC[C@H]1O [Example 38, 2-{9-[(1R,2R)-2-hydroxycyclohexyl]-4-methyl-6,7,8,9-tetrahydro-5H-pyridazino[3,4-e][1,4]diazepin-3-yl}-5-(trifluoromethyl)phenol] | 7.6 nM
CC(=O)O[C@@H]1CCCC[C@H]1N1CCN(C(C)=O)Cc2c1nnc(-c1ccc(C(F)(F)F)cc1O)c2C [Example 39, (1R,2R)-2-{6-acetyl-3-[2-hydroxy-4-(trifluoromethyl)phenyl]-4-methyl-5,6,7,8-tetrahydro-9H-pyridazino[3,4-e][1,4]diazepin-9-yl}cyclohexyl acetate] | 160 nM
CC(=O)N1CCN([C@@H]2CCCC[C@H]2O)c2nnc(-c3ccc(C(F)(F)F)cc3O)c(C)c2C1 [Example 40, 1-{9-[(1R,2R)-2-hydroxycyclohexyl]-3-[2-hydroxy-4-(trifluoromethyl)phenyl]-4-methyl-5,7,8,9-tetrahydro-6H-pyridazino[3,4-e][1,4]diazepin-6-yl}ethan-1-one] | 190 nM
CCN1CCN([C@@H]2CCCC[C@H]2O)c2nnc(-c3ccc(C(F)(F)F)cc3O)c(C)c2C1 [Example 41, 2-{6-ethyl-9-[(1R,2R)-2-hydroxycyclohexyl]-4-methyl-6,7,8,9-tetrahydro-5H-pyridazino[3,4-e][1,4]diazepin-3-yl}-5-(trifluoromethyl)phenol] | 26 nM
